# Assay results: US8906826B2, “Herbicidal compositions comprising 4-amino-3-chloro-5-fluoro-6-(4-chloro-2-fluoro-3-methoxyphenyl) pyridine-2-carboxylic acid or a derivative thereof and imidazolinones” (Dow AgroSciences, LLC, priority 2012, dated 2014)
# Columns and labels:
# ECHOR = assay: In-water applied, transplanted paddy rice weeds (Example II); assay type: in vivo, Echinochloa oryzoides (Ard.) Fritsch
# Description: Weed seeds or nutlets of the desired test plant species were planted in puddled soil (mud) prepared by mixing a shredded, non-sterilized mineral soil (50.5 percent silt, 25.5 percent clay, and 24 percent sand, with a pH of about 7.6 and an organic matter content of about 2.9 percent) and water at a 1:1 volumetric ratio. The prepared mud was dispensed in 365 mL aliquots into 16-ounce (oz.) non-perforated plastic pots with a surface area of 86.59 square centimeters (cm^2) leaving a headspace of 3 centimeters (cm) in each pot. Mud was allowed to dry overnight prior to planting or transplanting. Rice seeds were planted in Sun Gro MetroMix® 306 planting mixture, which typically has a pH of about 6.0 to about 6.8 and an organic matter content of about 30 percent, in plastic plug trays. Seedlings at the second or third leaf stage of growth were transplanted into 860 mL of mud contained in 32-oz. non-perforated plastic pots with a surface area of 86.59 cm^2 4 days prior to herbicide application. The paddy was created by filling the headspace of the pots with 2.5 to 3 cm of water. When required to ensure good germination and healthy plants, a fungicide treatment and/or other chemical or physical treatment was applied. The plants were grown for 4-22 days in a greenhouse with an approximate 14 h photoperiod which was maintained at about 29° C. during the day and about 26° C. during the night. Nutrients were added as Osmocote® (19:6:12, N:P:K+minor nutrients) at 2 g per 16-oz. pot and 4 g per 32-oz. pot. Water was added on a regular basis to maintain the paddy flood, and supplemental lighting was provided with overhead metal halide 1000-Watt lamps as necessary. The plants were employed for testing when they reached the first through fourth true leaf stage.
# (§1) Treatments consisted of the acid or esters of 4-amino-3-chloro-5-fluoro-6-(4-chloro-2-fluoro-3-methoxy-phenyl)pyridine-2-carboxylic acid (compound A) each formulated as an SC and various herbicidal components alone and in combination. Forms of compound A were applied on an acid equivalent basis.
# Other herbicidal components were applied on an acid equivalent basis and included the acetolactate synthase (ALS)-inhibiting imidazolinone herbicides imazethapyr ammonium salt formulated as Newpath®, imazamox ammonium salt formulated as Beyond®, imazapic ammonium salt formulated as Plateau®, imazapyr isopropylamine salt formulated as Arsenal®, imazamethabenz-methyl (technical material), and imazaquin isopropylamine salt formulated as Scepter®.
# Treatment requirements for each compound or herbicidal component were calculated based upon the rates being tested, the concentration of active ingredient or acid equivalent in the formulation, an application volume of 2 mL per component per pot, and an application area of 86.59 cm^2 per pot.
# For formulated compounds, a measured amount was placed in an individual 100 or 200 mL glass vial and was dissolved in a volume of 1.25% (v/v) Agri-Dex® crop oil concentrate to obtain application solutions.
# For technical grade compounds, a weighed amount was placed in an individual 100 to 200 mL glass vial and was dissolved in a volume of acetone to obtain concentrated stock solutions. […] The concentrated stock solutions obtained were diluted with an equivalent volume of an aqueous mixture containing 2.5% (v/v) crop oil concentrate so that the final application solutions contained 1.25% (v/v) crop oil concentrate.
# Applications were made by injecting with a pipetter appropriate amounts of the application solutions, individually and sequentially, into the aqueous layer of the paddy. Control plants were treated in the same manner with the solvent blank. Applications were made so that all treated plant material received the same concentrations of acetone and crop oil concentrate.
# The treated plants and control plants were placed in a greenhouse as described above and water was added as needed to maintain a paddy flood. […]
# AVEFA = assay: Postemergence foliar-applied, general weed control (Example III); assay type: in vivo, Avena fatua L.
# Description: Seeds or nutlets of the desired test plant species were planted in Sun Gro Metro-Mix® 360 planting mixture, which typically has a pH of about 6.0 to about 6.8 and an organic matter content of about 30 percent, in plastic pots with a surface area of 84.6 cm^2 and a volume of 560 cubic centimeters (cm^3). When required to ensure good germination and healthy plants, a fungicide treatment and/or other chemical or physical treatment was applied. The plants were grown for 7-31 days (d) in a greenhouse with an approximate 15 hour (h) photoperiod which was maintained at about 23-29° C. during the day and about 22-28° C. during the night. Nutrients (Peters Excel® 15-5-15 5-Ca 2-Mg) and water were added on a regular basis and supplemental lighting was provided with overhead metal halide 1000-Watt lamps as necessary. The plants were employed for testing when they reached the first, second, or third true leaf stage.
# Treatment requirements were calculated based upon the rates being tested, the concentration of active ingredient or acid equivalent in the formulation, and a 12 mL application volume at a rate of 187 L/ha.
# as §1, with “(Compound A),” for “(compound A)”, “SC,” for “SC”, “basis. […]” for “basis.”
# For treatments comprised of formulated compounds, measured amounts of compounds were placed individually in 25 mL glass vials and diluted in a volume of 1.25% (v/v) Agri-Dex® crop oil concentrated to obtain 12× stock solutions. […]
# The treated plants and control plants were placed in a greenhouse as described above and watered by sub-irrigation to prevent wash-off of the test compounds. After approximately 3 weeks, the condition of the test plants as compared with that of the untreated plants was determined visually and scored on a scale of 0 to 100 percent where 0 corresponds to no injury or growth inhibition and 100 corresponds to complete kill. […]
structure (smiles),measurement,setting,value
"COCc1cnc(C2=NC(C)(C(C)C)C(=O)N2)c(C(=O)O)c1.N (racemic) [Imazamox ammonium, ammonium (±)-2-[4,5-dihydro-4-methyl-4-(1-methylethyl)-5-oxo-1H-imidazol-2-yl]-5-(methoxymethyl)-3-pyridinecarboxylate]",Visual Weed Control (%) - 25 DAA ECHOR Obs,ECHOR; Imazamox ammonium 5.6 gae/ha,0%
same,Visual Weed Control (%) - 25 DAA ECHOR Obs,ECHOR; Imazamox ammonium 11.2 gae/ha,0%
same,Visual Weed Control (%) - 25 DAA ECHOR Obs,ECHOR; Imazamox ammonium 22.4 gae/ha,0%
"CCc1cnc(C2=NC(C)(C(C)C)C(=O)N2)c(C(=O)O)c1.N (racemic) [Imazethapyr ammonium, ammonium (±)-2-[4,5-dihydro-4-methyl-4-(1-methylethyl)-5-oxo-1H-imidazol-2-yl]-5-ethyl-3-pyridinecarboxylate]",Visual Weed Control (%) - 19 DAA AVEFA Obs,AVEFA; Imazethapyr ammonium 70 gae/ha,80%
same,Visual Weed Control (%) - 25 DAA ECHOR Obs,ECHOR; Imazethapyr ammonium 8.75 gae/ha,0%
same,Visual Weed Control (%) - 25 DAA ECHOR Obs,ECHOR; Imazethapyr ammonium 17.5 gae/ha,0%
same,Visual Weed Control (%) - 25 DAA ECHOR Obs,ECHOR; Imazethapyr ammonium 35 gae/ha,25%
"Cc1cnc(C2=NC(C)(C(C)C)C(=O)N2)c(C(=O)O)c1.N (racemic) [Imazapic ammonium, ammonium (±)-2-[4,5-dihydro-4-methyl-4-(1-methylethyl)-5-oxo-1H-imidazol-2-yl]-5-methyl-3-pyridinecarboxylic acid]",Visual Weed Control (%) - 19 DAA AVEFA Obs,AVEFA; Imazapic ammonium 35 gae/ha,70%
same,Visual Weed Control (%) - 25 DAA ECHOR Obs,ECHOR; Imazapic ammonium 4.38 gae/ha,0%
same,Visual Weed Control (%) - 25 DAA ECHOR Obs,ECHOR; Imazapic ammonium 8.75 gae/ha,0%
same,Visual Weed Control (%) - 25 DAA CHOR Obs,ECHOR; Imazapic ammonium 17.5 gae/ha,0%
same,Visual Weed Control (%) - 25 DAA ECHOR Obs,ECHOR; Imazapic ammonium 17.5 gae/ha,0%
same,Visual Weed Control (%) - 19 DAA ECHOR Obs,ECHOR; Imazapic ammonium 35 gae/ha,78%
"COc1c(Cl)ccc(-c2nc(C(=O)O)c(Cl)c(N)c2F)c1F [Compound A Acid, 4-amino-3-chloro-6-(4-chloro-2-fluoro-3-methoxyphenyl)-5-fluoropyridine-2-carboxylic acid]",Visual Weed Control (%) - 19 DAA AVEFA Obs,AVEFA; Compound A Acid 29 gae/ha,10%
same,Visual Weed Control (%) - 25 DAA CHOR Obs,ECHOR; Compound A Acid 8.75 gae/ha,0%
same,Visual Weed Control (%) - 25 DAA ECHOR Obs,ECHOR; Compound A Acid 8.75 gae/ha,0%
same,Visual Weed Control (%) - 22 DAA ECHOR Obs,ECHOR; Compound A Acid 10.6 gae/ha,15%
same,Visual Weed Control (%) - 25 DAA CHOR Obs,ECHOR; Compound A Acid 17.5 gae/ha,0%
same,Visual Weed Control (%) - 25 DAA ECHOR Obs,ECHOR; Compound A Acid 17.5 gae/ha,0%
same,Visual Weed Control (%) - 25 DAA CHOR Obs,ECHOR; Compound A Acid 35 gae/ha,10%
same,Visual Weed Control (%) - 25 DAA ECHOR Obs,ECHOR; Compound A Acid 35 gae/ha,10%
same,Visual Weed Control (%) - 19 DAA ECHOR Obs,ECHOR; Compound A Acid 42 gae/ha,15%
same,Visual Weed Control (%) - 22 DAA ECHOR Obs,ECHOR; Compound A Acid 42.4 gae/ha,40%
"COc1c(Cl)ccc(-c2nc(C(=O)OCc3ccccc3)c(Cl)c(N)c2F)c1F [Compound A Benzyl Ester, benzyl ester of 4-amino-3-chloro-5-fluoro-6-(4-chloro-2-fluoro-3-methoxy-phenyl)pyridine-2-carboxylic acid]",Visual Weed Control (%) - 25 DAA ECHOR Obs,ECHOR; Compound A Benzyl Ester 8.75 gae/ha,0%
same,Visual Weed Control (%) - 22 DAA ECHOR Obs,ECHOR; Compound A Benzyl Ester 17.5 gae/ha,30%
